pIC50: −log10 of the molar value.
Test system: IGROV1 complex spheroids (HUVEC, MSC), viability % test/control
Assay: Anticancer human tumor IGROV1 cell line growth inhibition [GQUAD];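 also: spheroids exposed to compounds for 7 days before readout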;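 as to viability, T/C: 100% = DMSO vehicle control viability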
Settings: for pIC50: curve of first compound; for viability, T/C: stronger effect = lower value
Procedure, shortened: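 Multi-cell-type spheroids of tumor cells with HUVEC and mesenchymal stem cells, treated with drug combinations. Concentrations descend in half-log steps from near clinical Cmax, or from 10 microM where Cmax is unknown; viability read-out.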

[1] = second compound 0.0316 µM, first compound 0.0316 µM
[2] = second compound 0.0316 µM, first compound 0.1 µM
[3] = second compound 0.0316 µM, first compound 0.316 µM
[4] = second compound 0.0316 µM, first compound 1 µM
[5] = second compound 0.0316 µM, first compound 3.16 µM
[6] = second compound 0.0316 µM, first compound 10 µM
[7] = second compound 0.1 µM, first compound 0.0316 µM
[8] = second compound 0.1 µM, first compound 0.1 µM
[9] = second compound 0.1 µM, first compound 0.316 µM
[10] = second compound 0.1 µM, first compound 1 µM
[11] = second compound 0.1 µM, first compound 3.16 µM
[12] = second compound 0.1 µM, first compound 10 µM
[13] = second compound 0.316 µM, first compound 0.0316 µM
[14] = second compound 0.316 µM, first compound 0.1 µM
[15] = second compound 0.316 µM, first compound 0.316 µM
[16] = second compound 0.316 µM, first compound 1 µM
[17] = second compound 0.316 µM, first compound 3.16 µM
[18] = second compound 0.316 µM, first compound 10 µM
[19] = second compound 1 µM, first compound 0.0316 µM
[20] = second compound 1 µM, first compound 0.1 µM
[21] = second compound 1 µM, first compound 0.316 µM
[22] = second compound 1 µM, first compound 1 µM
[23] = second compound 1 µM, first compound 3.16 µM
[24] = second compound 1 µM, first compound 10 µM
[25] = second compound 3.16 µM, first compound 0.0316 µM
[26] = second compound 3.16 µM, first compound 0.1 µM
[27] = second compound 3.16 µM, first compound 0.316 µM
[28] = second compound 3.16 µM, first compound 1 µM
[29] = second compound 3.16 µM, first compound 3.16 µM
[30] = second compound 3.16 µM, first compound 10 µM
[31] = second compound 10 µM, first compound 0.0316 µM
[32] = second compound 10 µM, first compound 0.1 µM
[33] = second compound 10 µM, first compound 0.316 µM
[34] = second compound 10 µM, first compound 1 µM
[35] = second compound 10 µM, first compound 3.16 µM
[36] = second compound 10 µM, first compound 10 µM

## C=CCn1c(=O)c2cnc(Nc3ccc(N4CCN(C)CC4)cc3)nc2n1-c1cccc(C(C)(C)O)n1 + Cc1[nH]c2ccc(F)cc2c1-c1nc2c3cccnc3c3ncccc3c2[nH]1
Second compound 0.0316 µM
  pIC50: 6.85
Second compound 0.1 µM
  pIC50: 6.81
Second compound 0.316 µM
  pIC50: > 7.50
Second compound 1 µM
  pIC50: > 7.50
Second compound 3.16 µM
  pIC50: > 7.50
Second compound 10 µM
  pIC50: > 7.50
[1]
  viability, T/C: 98.8%
[2]
  viability, T/C: 66.5%
[3]
  viability, T/C: 10.9%
[4]
  viability, T/C: 3.13%
[5]
  viability, T/C: 2.59%
[6]
  viability, T/C: 2.44%
[7]
  viability, T/C: 98.9%
[8]
  viability, T/C: 72.9%
[9]
  viability, T/C: 12.7%
[10]
  viability, T/C: 2.29%
[11]
  viability, T/C: 3.17%
[12]
  viability, T/C: 2.44%
[13]
  viability, T/C: 40.6%
[14]
  viability, T/C: 19.9%
[15]
  viability, T/C: 2.19%
[16]
  viability, T/C: 1.65%
[17]
  viability, T/C: 2.64%
[18]
  viability, T/C: 1.76%
[19]
  viability, T/C: 3.28%
[20]
  viability, T/C: 3.17%
[21]
  viability, T/C: 2.16%
[22]
  viability, T/C: 2.04%
[23]
  viability, T/C: 2.4%
[24]
  viability, T/C: 1.76%
[25]
  viability, T/C: 3.09%
[26]
  viability, T/C: 2.89%
[27]
  viability, T/C: 2.25%
[28]
  viability, T/C: 1.95%
[29]
  viability, T/C: 2.45%
[30]
  viability, T/C: 1.48%
[31]
  viability, T/C: 3.85%
[32]
  viability, T/C: 2.84%
[33]
  viability, T/C: 2.5%
[34]
  viability, T/C: 2.14%
[35]
  viability, T/C: 2.23%
[36]
  viability, T/C: 1.57%

## CC(C)(O)C1CCC(Nc2ccc3ncc(-c4cccc(C(F)(F)F)c4)n3n2)CC1 (stereo not drawn) + Cc1[nH]c2ccc(F)cc2c1-c1nc2c3cccnc3c3ncccc3c2[nH]1
Second compound 0.0316 µM
  pIC50: 5.70
Second compound 0.1 µM
  pIC50: 5.74
Second compound 0.316 µM
  pIC50: 6.21
Second compound 1 µM
  pIC50: > 7.50
Second compound 3.16 µM
  pIC50: > 7.50
Second compound 10 µM
  pIC50: > 7.50
[1]
  viability, T/C: 93.8%
[2]
  viability, T/C: 83.1%
[3]
  viability, T/C: 94.3%
[4]
  viability, T/C: 82.7%
[5]
  viability, T/C: 27.4%
[6]
  viability, T/C: 30%
[7]
  viability, T/C: 99.3%
[8]
  viability, T/C: 83.3%
[9]
  viability, T/C: 102%
[10]
  viability, T/C: 68.5%
[11]
  viability, T/C: 32.9%
[12]
  viability, T/C: 33.4%
[13]
  viability, T/C: 69.6%
[14]
  viability, T/C: 70.6%
[15]
  viability, T/C: 65.3%
[16]
  viability, T/C: 38.8%
[17]
  viability, T/C: 6.69%
[18]
  viability, T/C: 5.42%
[19]
  viability, T/C: 3.27%
[20]
  viability, T/C: 3.08%
[21]
  viability, T/C: 4.14%
[22]
  viability, T/C: 3.08%
[23]
  viability, T/C: 3.37%
[24]
  viability, T/C: 2.43%
[25]
  viability, T/C: 2.86%
[26]
  viability, T/C: 3.13%
[27]
  viability, T/C: 3.35%
[28]
  viability, T/C: 3.26%
[29]
  viability, T/C: 2.39%
[30]
  viability, T/C: 2.06%
[31]
  viability, T/C: 3.41%
[32]
  viability, T/C: 3.18%
[33]
  viability, T/C: 3.27%
[34]
  viability, T/C: 2.99%
[35]
  viability, T/C: 2.37%
[36]
  viability, T/C: 2.38%

## CCCS(=O)(=O)Nc1ccc(F)c(C(=O)c2c[nH]c3ncc(-c4ccc(Cl)cc4)cc23)c1F + Cc1[nH]c2ccc(F)cc2c1-c1nc2c3cccnc3c3ncccc3c2[nH]1
Second compound 0.0316 µM
  pIC50: 5.32
Second compound 0.1 µM
  pIC50: 5.27
Second compound 0.316 µM
  pIC50: 5.86
Second compound 1 µM
  pIC50: > 7.50
Second compound 3.16 µM
  pIC50: > 7.50
Second compound 10 µM
  pIC50: > 7.50
[1]
  viability, T/C: 97.9%
[2]
  viability, T/C: 95.9%
[3]
  viability, T/C: 98.4%
[4]
  viability, T/C: 59.4%
[5]
  viability, T/C: 80.5%
[6]
  viability, T/C: 19.3%
[7]
  viability, T/C: 104%
[8]
  viability, T/C: 91.6%
[9]
  viability, T/C: 77.5%
[10]
  viability, T/C: 64.8%
[11]
  viability, T/C: 82.1%
[12]
  viability, T/C: 11.7%
[13]
  viability, T/C: 86.6%
[14]
  viability, T/C: 81.1%
[15]
  viability, T/C: 81.4%
[16]
  viability, T/C: 53.2%
[17]
  viability, T/C: 32.3%
[18]
  viability, T/C: 2.23%
[19]
  viability, T/C: 4.32%
[20]
  viability, T/C: 3.48%
[21]
  viability, T/C: 3.41%
[22]
  viability, T/C: 3.93%
[23]
  viability, T/C: 4.28%
[24]
  viability, T/C: 3%
[25]
  viability, T/C: 3.26%
[26]
  viability, T/C: 3.6%
[27]
  viability, T/C: 3.61%
[28]
  viability, T/C: 3.81%
[29]
  viability, T/C: 3.5%
[30]
  viability, T/C: 2.72%
[31]
  viability, T/C: 3.29%
[32]
  viability, T/C: 3.66%
[33]
  viability, T/C: 4.63%
[34]
  viability, T/C: 3.69%
[35]
  viability, T/C: 3.96%
[36]
  viability, T/C: 2.93%

## COc1ncnc(C2CC2)c1-c1ncc2cnn(Cc3ccc(-c4nc(C(F)(F)F)cn4C(C)C)cc3)c2n1 + Cc1[nH]c2ccc(F)cc2c1-c1nc2c3cccnc3c3ncccc3c2[nH]1
Second compound 0.0316 µM
  pIC50: < 5.00
Second compound 0.1 µM
  pIC50: < 5.00
Second compound 0.316 µM
  pIC50: < 5.00
Second compound 1 µM
  pIC50: > 7.50
Second compound 3.16 µM
  pIC50: > 7.50
Second compound 10 µM
  pIC50: > 7.50
[1]
  viability, T/C: 95.7%
[2]
  viability, T/C: 79.5%
[3]
  viability, T/C: 89.6%
[4]
  viability, T/C: 89.9%
[5]
  viability, T/C: 90.3%
[6]
  viability, T/C: 93.2%
[7]
  viability, T/C: 100%
[8]
  viability, T/C: 74.6%
[9]
  viability, T/C: 79.7%
[10]
  viability, T/C: 80.7%
[11]
  viability, T/C: 100%
[12]
  viability, T/C: 71.2%
[13]
  viability, T/C: 63.7%
[14]
  viability, T/C: 51.8%
[15]
  viability, T/C: 72.1%
[16]
  viability, T/C: 62.4%
[17]
  viability, T/C: 72.8%
[18]
  viability, T/C: 46.1%
[19]
  viability, T/C: 3.69%
[20]
  viability, T/C: 3.51%
[21]
  viability, T/C: 4.12%
[22]
  viability, T/C: 3.46%
[23]
  viability, T/C: 4.03%
[24]
  viability, T/C: 3.74%
[25]
  viability, T/C: 2.91%
[26]
  viability, T/C: 3.63%
[27]
  viability, T/C: 3.35%
[28]
  viability, T/C: 3.99%
[29]
  viability, T/C: 3.54%
[30]
  viability, T/C: 2.75%
[31]
  viability, T/C: 3.12%
[32]
  viability, T/C: 4.19%
[33]
  viability, T/C: 4.15%
[34]
  viability, T/C: 3.3%
[35]
  viability, T/C: 3.45%
[36]
  viability, T/C: 2.6%

From PubChem BioAssay AID2060486 (Molecular Pharmacology Branch, DTP, NCI, 2025)
